Active and inactive are the calls of the source. The rule behind the calls is not given here.

For assay [1], the target named is T1, Mu-type opioid receptor (Homo sapiens, UniProt P35372). The assay is described as follows: Agonist activity at human mu opioid receptor expressed in CHO cells assessed as stimulation of [35S]GTPgammaS binding relative to basal [35S]GTPgammaS binding. The format is functional, cell-based. On the technique in general: GTPγS is a poorly hydrolysed GTP analogue; its binding reports G protein activation.

The target in assay [2] is T1, Mu-type opioid receptor. As to the kind of experiment: Antagonist activity at human mu opioid receptor expressed in CHO cells assessed as inhibition of DAMGO-induced [35S]GTPgammaS binding at 10 uM. The format is functional, cell-based.
Assay [3] has as its target T2, Kappa-type opioid receptor (Homo sapiens, UniProt P41145). The assay is described as follows: Agonist activity at human kappa opioid receptor expressed in CHO cells assessed as stimulation of [35S]GTPgammaS binding. Format: functional, cell-based.
Assay [4] has as its target T1, Mu-type opioid receptor. The assay is described as follows: Displacement of [3H]DAMGO from human mu opioid receptor expressed in CHO cells. Format: cell-based. For orientation: Loss of bound radioactivity is the signal in a displacement assay; it reports binding, not function.
Assay [5] addresses T2, Kappa-type opioid receptor. The assay is described as follows: Displacement of [3H]U69,593 from human kappa opioid receptor expressed in CHO cells. Format: cell-based.
For assay [6], the target named is T1, Mu-type opioid receptor. As to the kind of experiment: Antagonist activity at human mu opioid receptor expressed in CHO cells assessed as inhibition of DAMGO-induced [35S]GTPgammaS binding. Format: functional, cell-based.
The target of assay [7] is Delta-type opioid receptor (Homo sapiens, UniProt P41143). As to the kind of experiment: Displacement of [3H]Naltrindole from human delta opioid receptor expressed in CHO cells. Format: cell-based.
In assay [8] the target is T1, Mu-type opioid receptor. The assay is described as follows: Agonist activity at human mu opioid receptor expressed in CHO cells assessed as stimulation of [35S]GTPgammaS binding. Format: functional, cell-based.
Assay [9] deals with CHO. The assay is described as follows: Ratio of Ki for human delta opioid receptor to Ki for human kappa opioid receptor expressed in CHO cells. Format: cell-based.
Assay [10] has as its system CHO. As to the kind of experiment: Ratio of Ki for human mu opioid receptor to Ki for human kappa opioid receptor expressed in CHO cells. The format is cell-based.
The nature of assay [11]: Displacement of [3H]Naltrindole from human delta opioid receptor expressed in CHO cells.

T2 sequence (P41145 whole entry): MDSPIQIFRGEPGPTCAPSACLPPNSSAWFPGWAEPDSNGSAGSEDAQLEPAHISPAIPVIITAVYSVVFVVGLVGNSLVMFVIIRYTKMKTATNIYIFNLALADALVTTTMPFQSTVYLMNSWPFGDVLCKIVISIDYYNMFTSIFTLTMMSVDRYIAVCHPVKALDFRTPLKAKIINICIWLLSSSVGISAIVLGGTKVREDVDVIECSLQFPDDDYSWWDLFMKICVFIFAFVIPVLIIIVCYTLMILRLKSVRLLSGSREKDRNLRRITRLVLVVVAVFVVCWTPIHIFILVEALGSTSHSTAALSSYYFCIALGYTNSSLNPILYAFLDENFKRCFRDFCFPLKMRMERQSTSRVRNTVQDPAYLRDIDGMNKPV
T1 sequence (P35372 whole entry): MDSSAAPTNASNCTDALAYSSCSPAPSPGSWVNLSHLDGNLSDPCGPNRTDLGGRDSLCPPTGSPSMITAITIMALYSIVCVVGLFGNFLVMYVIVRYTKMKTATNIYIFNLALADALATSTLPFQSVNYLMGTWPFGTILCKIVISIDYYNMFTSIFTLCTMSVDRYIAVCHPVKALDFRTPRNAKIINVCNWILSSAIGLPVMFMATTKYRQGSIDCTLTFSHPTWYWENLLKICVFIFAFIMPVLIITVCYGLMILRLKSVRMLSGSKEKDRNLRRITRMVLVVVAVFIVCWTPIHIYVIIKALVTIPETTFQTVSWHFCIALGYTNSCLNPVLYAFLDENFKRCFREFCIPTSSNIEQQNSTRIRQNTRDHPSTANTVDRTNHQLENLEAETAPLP
Sequence of Delta-type opioid receptor (P41143 whole entry): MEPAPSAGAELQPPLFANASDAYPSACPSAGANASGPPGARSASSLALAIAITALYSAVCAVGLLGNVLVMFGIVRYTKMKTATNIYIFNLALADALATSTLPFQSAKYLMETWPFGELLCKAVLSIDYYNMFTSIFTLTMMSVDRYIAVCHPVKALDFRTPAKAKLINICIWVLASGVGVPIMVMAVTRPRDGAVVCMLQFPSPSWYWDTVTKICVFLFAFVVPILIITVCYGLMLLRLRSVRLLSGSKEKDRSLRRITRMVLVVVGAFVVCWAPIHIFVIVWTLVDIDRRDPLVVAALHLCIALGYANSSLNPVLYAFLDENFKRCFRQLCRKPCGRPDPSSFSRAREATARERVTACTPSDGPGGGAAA

The term Emax denotes the maximal effect, on the per cent scale that the assay sets. For orientation: EC50 means the concentration at which the effect is half-maximal. Take `C[C@H]1C2Cc3cc4nn[nH]c4cc3[C@@]1(C)CCN2CC1CC1`: in [1], the Emax was less than 20%. The Imax in assay [2] stood at 73%. The EC50 in assay [3] worked out at 77 nM.
As usually defined, the Ki is a measure of affinity in units of concentration, obtained from inhibition or displacement. As usually defined, the IC50 is the concentration that inhibits the measured activity by half. In the case of `C[C@H]1C2Cc3cc4[nH]cnc4cc3[C@@]1(C)CCN2CC1CC1`, the figures for the inhibitory constant (Ki) in [4], in assay [5] and in assay [7] were 0.31 nM, 0.063 nM and 5.1 nM, respectively. In assay [6] (read-out: IC50), the half-inhibitory concentration (IC50) worked out at 170 nM. In addition, the EC50 was 4.7 nM in assay [3] and 9.8 nM in assay [8].
With `C[C@H]1C2Cc3cc4nc(O)[nH]c4cc3[C@@]1(C)CCN2CC1CC1`, the Ratio Ki was determined as 61 in assay [9] and 5 in assay [10]. Moreover, the Ki is 60 nM in [4], 12 nM in assay [5] and 730 nM in [7].
For `C[C@H]1C2Cc3cc4nc[nH]c4cc3[C@@]1(C)CCN2CC1CC1`, in assay [1], the Emax came to 22%. The Imax in [6] worked out at 89%.
With `C[C@H]1[C@H]2Cc3ccc(O)cc3[C@]1(C)CCN2CC1CC1` [CYCLAZOCINE], the Ki in [5] came to 0.07 nM; in [7] it was 2 nM. Besides, the EC50 in [3] turned out to be 1.3 nM.
Consider `C[C@@H](NC(=O)[C@@H](N)Cc1ccc(O)cc1)C(=O)NCC(=O)N(C)[C@@H](Cc1ccccc1)C(=O)NCCO` [DAMGO], for which the Imax entry in assay [6] was “inactive”. Also, the IC50 entry in assay [6] (cho) is given as “Not Active”.
As to `C[C@H]1C2Cc3ccc4[nH]cnc4c3[C@@]1(C)CCN2CC1CC1`, the Ratio Ki in [9] is 740; in assay [10], 10. In addition, the Ki was 9.5 nM in assay [4], 0.92 nM in [5] and 680 nM in [7].
Regarding `C[C@H]1C2Cc3cc4cc[nH]c4cc3[C@@]1(C)CCN2CC1CC1`, the results for the Ratio Ki in assay [9] and in assay [10] were 36 and 3, respectively. In addition, the Ki in assay [4] is 18 nM; in assay [5] it was 7 nM; in assay [11], 250 nM.
Turning to `Cc1nc2cc3c(cc2[nH]1)[C@@]1(C)CCN(CC2CC2)C(C3)[C@@H]1C`, in [1], the Emax was 55%. For the same molecule, the Ki in assay [4] turned out to be 0.77 nM; in assay [5] it was 0.05 nM; in assay [7], 18 nM. In assay [6], the Imax is 100%. Besides, in assay [6] (read-out: IC50), the IC50 was found to be 11000 nM. The EC50 turned out to be 5.8 nM in assay [3] and 18 nM in [8].
For the molecule `Cc1nc2c3c(ccc2[nH]1)CC1[C@H](C)[C@]3(C)CCN1CC1CC1`, the Ratio Ki came out at 310 in assay [9] and 5 in assay [10]. Besides, the values for the Ki in [4], in [5] and in assay [7] were 2.5 nM, 0.51 nM and 160 nM, respectively.
Consider `C[C@H]1C2Cc3ccc4[nH]nnc4c3[C@@]1(C)CCN2CC1CC1`, for which, in [1], the Emax stood at 0.58%. The Imax in assay [6] turned out to be 98%. In assay [6] (read-out: IC50), the IC50 was 99 nM. For the same molecule, in [3], the EC50 turned out to be 8.6 nM.
